Assay results taken from ChEMBL document CHEMBL4602690, “Pigments of the Moss Paraleucobryum longifolium: Isolation and Structure Elucidation of Prenyl-Substituted 8,8'-Linked 9,10-Phenanthrenequinone Dimers” (J Nat Prod, 2020).

Key:
Format in all cases: functional, cell-based
SiHa = test: Antiproliferative activity against human SiHa cells by MTT assay
MDA-MB-231 = test: Antiproliferative activity against human MDA-MB-231 cells by MTT assay
A2780 = test: Antiproliferative activity against human A2780 cells by MTT assay
HeLa = test: Antiproliferative activity against human HeLa cells by MTT assay

Measured: IC50

C=C(C)[C@H](CCC(C)(C)O)Cc1c(O)ccc2c1C(=O)C(=O)c1c-2c(O)cc(OC)c1-c1c(OC)cc(O)c2c1C(=O)C(=O)c1c-2ccc(O)c1C[C@@H](CCC(C)(C)O)C(=C)C
< 10 µM: SiHa | MDA-MB-231 | A2780 | HeLa

COc1cc(O)c2c(c1-c1c(OC)cc(O)c3c1C(=O)C(=O)c1c-3ccc(O)c1CCC(C)(C)O)C(=O)C(=O)c1c-2ccc(O)c1CCC(C)(C)O
< 10 µM: SiHa | MDA-MB-231 | A2780 | HeLa
